From US7345065B2, “Methods and compositions for alleviating pain” (Allergan, Inc., priority 2002, dated 2008)

Columns and labels:
rat α-2B (RNG gene) = target: T1, rat α-2B (RNG gene) (Rattus norvegicus, UniProt P19328); test: RSAT assay, α-2B receptor; assay type: cell-based; details: for EC50: NA = not active (EC50 ≧ 10,000); for fold greater activity at the α-2B receptor than the α-2C receptor: RSAT; for Emax: read-out: % efficacy 2B
T1 construct: expressed in transfected cells; host or cells: NIH-3T3
T1 sequence (P19328 1-453): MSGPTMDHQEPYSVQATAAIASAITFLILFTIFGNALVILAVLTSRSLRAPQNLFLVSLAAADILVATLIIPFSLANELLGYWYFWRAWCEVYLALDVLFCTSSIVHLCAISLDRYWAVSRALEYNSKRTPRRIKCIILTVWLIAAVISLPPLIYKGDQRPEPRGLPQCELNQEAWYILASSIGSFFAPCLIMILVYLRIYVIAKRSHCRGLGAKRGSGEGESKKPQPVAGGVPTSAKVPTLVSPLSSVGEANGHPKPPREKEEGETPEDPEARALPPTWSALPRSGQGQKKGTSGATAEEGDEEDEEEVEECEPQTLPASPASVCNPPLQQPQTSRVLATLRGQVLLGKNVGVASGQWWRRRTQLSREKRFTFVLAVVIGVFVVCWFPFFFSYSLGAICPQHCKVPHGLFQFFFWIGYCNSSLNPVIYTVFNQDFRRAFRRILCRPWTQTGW
Description: Agonist and antagonist activity, including selectivity and specificity, can be characterized using any of a variety of routine assays, including, without limitation, Receptor Selection and Amplification Technology (RSAT) assays (Messier et al., Pharmacol. Toxicol. 76:308-11 (1995); Conklin et al., Nature 363:274-6 (1993)); cyclic AMP assays (Shimizu et al., J. Neurochem. 16:1609-1619 (1969)); and cytosensor microphysiometry assays (Neve et al., J. Biol. Chem. 267:25748-25753 (1992)). Such assays generally are performed using cells that naturally express only a single α-adrenergic receptor subtype, or using transfected cells expressing a single recombinant α-adrenergic receptor subtype. The adrenergic receptor can be a human receptor or homolog thereof having a similar pharmacology. As disclosed herein, RSAT assays were performed using cells transiently transfected with human α-2A (c10 gene); rat α-2B (RNG gene); human α-2C (c4 gene); bovine α-1A; hamster α-1B; and rat α-1D.
The RSAT assay measures receptor-mediated loss of contact inhibition resulting in selective proliferation of receptor-containing cells in a mixed population of confluent cells. The increase in cell number is assessed with an appropriate detectable marker gene such as β-galactosidase, if desired, in a high throughput or ultra high throughput assay format. Receptors that activate the G protein, Gq, elicit the proliferative response. α-adrenergic receptors, which normally couple to Gi, activate the RSAT response when coexpressed with a hybrid Gq protein containing a Gi receptor recognition domain, designated Gq/i5.
As an example, an RSAT assay can be performed essentially as follows. NIH-3T3 cells are plated at a density of 2×10^6 cells in 15 cm dishes and maintained in Dulbecco's modified Eagle's medium supplemented with 10% calf serum. One day later, cells are cotransfected by calcium phosphate precipitation with mammalian expression plasmids encoding p-SV-β-galactosidase (5-10 μg), receptor (1-2 μg) and G protein (1-2 μg). Carrier DNA, for example 40 μg salmon sperm DNA, also can be included to increase transfection efficiency. Fresh media is added on the following day; one to two days later, cells are harvested and frozen in 50 assay aliquots. Transfected cells are thawed, and 100 μl of cells added to 100 μl aliquots of compound to be tested, with various concentrations assayed in triplicate, for example, in 96-well plates. Incubation continues for 72 to 96 hours at 37°. After washing with phosphate-buffered saline, β-galactosidase activity is determined by adding 200 μl of chromogenic substrate (3.5 mM O-nitrophenyl-β-D-galactopyranoside/0.5% NP-40 in phosphate buffered saline), incubating overnight at 30°, and measuring optical density at 420 nm. The absorbancy is a measure of enzyme activity, which depends on cell number and reflects receptor-mediated cell proliferation. The EC50 and maximal effect (efficacy) of each drug at each receptor is determined.

Chung model rats = test: Chung rat nerve ligation model, tactile allodynia reversal (Von Frey); assay type: in vivo; details: for allodynia reversal, single oral dose: Compound 3 30 μg/kg, Compound 11 0.1 mg/kg, Compound 4 0.3 mg/kg; for Peak allodynia reversal (dose): intraperitoneal injection, dose (3-300 μg/kg); for allodynia reversal: osmotic minipump 0.1 mg/kg/hour for five days; for persistence of analgesic effects after treatment: subcutaneous osmotic minipump 0.1 mg/kg/hour, seven days; for maintenance of the analgesic effect after minipump removal: osmotic minipump for five days, four week test period
Experimental: The Chung rat nerve ligation model is a well accepted model of peripheral neuropathic pain. In the Chung model, partial ligation of left spinal nerves L-5 and L-6 produces a long-lasting hypersensitivity to light touch on the affected left foot. The hypersensitivity is similar to pain experienced by humans with the neuropathic condition of causalgia (Kim and Chung, Pain 50:355-363 (1992)).
Chung rat surgeries of about 20 minutes duration were performed essentially as follows. Male Sprague-Dawley rats weighing 100 to 120 grams were anesthetized with isofluorane. After shaving and preparing the surgical site with betadine, an incision was made from thoracic vertebra XIII down toward the sacrum, and muscle separated from spinal vertebra (left side) at the L4-S2 levels. The L6 vertebra were located, and the transverse process carefully removed with a small rongeur to visually identify the L4-L6 spinal nerves. L5 and L6 spinal nerves were isolated and tightly ligated with 6-0 silk thread; the wound was sutured after complete hemostasis was confirmed. A small amount of antibiotic ointment was applied to the incised area before transferring the animals to a plastic recovery cage under a regulated heat-temperature lamp. Animals were not treated with any topical or local anesthetics post-operatively.
Assessment of pain in Chung model rats was performed by applying a light tactile stimulus (Von Frey hair) to the affected surgical paw as follows. A 50% pain threshold was established by applying the Von Frey hair in an up-and-down manner to the plantar surface of the surgical paw with just enough force to bend them. A positive response was recorded if the paw was withdrawn sharply. The 50% paw withdrawal threshold was determined using the method of Dixon et al., Ann. Rev. Pharmacol. Toxicol. 20:441-462 (1980). The post-drug threshold was compared to the pre-drug threshold, and the precent reversal of tactile sensitivity calculated based on a normal threshold of 15.1 grams. The results were expressed as % allodynia reversal, reflecting the percentage reversal of pain threshold relative to a normal rat (100%).
Chung surgeries were performed, and pain assessed as described above. Drugs administered via osmotic minipump were delivered as follows. ALZET (Cupertino, Calif.) minipumps (Model #1007D) were implanted subcutaneously on the rats' back between the shoulder blades. Pumps were filled with test solution prior to surgery, which was performed with aseptic procedures and sterilized surgical instruments. After anesthetization with isoflorane and midline incision between the shoulder blades through the muscle, a subcutaneous pocket was exposed. The minipump was inserted into the exposed pocket, before stapling the wounds closed and allowing animals to recover under a warming light.
ALZET osmotic minipumps (model 1007D) hold a total volume of 100 μl and delivered drug at the set rat of 0.5 μl per hour the indicated time period. Drugs were administered at the indicated rate, typically 100 μg/hr/kg, dissolved in 50% DMSO, with the concentration of drug in the pump varied depending on animal weight. […]

SMILES	EC50 (rat α-2B (RNG gene))	fold greater activity at the α-2B receptor than the α-2C receptor (rat α-2B (RNG gene))	Emax (rat α-2B (RNG gene))	allodynia reversal, single oral dose (Chung model rats)	Peak allodynia reversal (dose) (Chung model rats)	allodynia reversal (Chung model rats)	analgesia, agonist given alone (Chung model rats; peripheral (intraperitoneal) administration, Chung rats, Compound 2 100 μg/kg, clonidine 100 μg/kg, Compound 3 1 to 1000 μg/kg)	time by which the analgesic effect was gone (Chung model rats; single oral dose)	time to analgesic effect (Chung model rats; single oral dose)	persistence of analgesic effects after treatment (Chung model rats)	maintenance of the analgesic effect after minipump removal (Chung model rats)	oral dose sufficient for an analgesic effect (Chung model rats; single oral dose)	allodynia reversal and duration at 1 mg/kg oral (Chung model rats; single oral dose 1 mg/kg, compared with 0.3 mg/kg)
O=C1c2ccccc2CCC1Cc1c[nH]c(=S)[nH]1 (racemic) [Compound 3]	24 nM	about 100 fold	90%	70-100%	81% +/− 10%	about 80%	significant analgesia without producing sedation	≤ 2 h	less than 20 minutes	continued for over a month after treatment was concluded			
O=c1[nH]cc(CC2CCc3cc(F)ccc32)[nH]1 (stereo not drawn) [Compound 4]	15 nM	more than 10 fold	100%	60-80%	80% +/− 6.5%	about 80%		essentially no pain relief was observed after four hours		continued for over a month after treatment was concluded	maintained at essentially the same level over the entire four week test period	0.03 mg/kg	the allodynia was reversed to a greater extent, and the pain relief was of longer duration
S=c1[nH]cc(CC2CC=CC2)[nH]1 [Compound 11]	42 nM		80%	60-90%		about 80%		≤ 2 h			maintained at essentially the same level over the entire four week test period		
